For 20 compounds, IC50 results are on record in patent US10550105B2 (Ribon Therapeutics Inc., priority 2018, dated 2020).

pIC50: −log10 of the molar value.

Sequence of PARP7 (Q7Z3E1 whole entry): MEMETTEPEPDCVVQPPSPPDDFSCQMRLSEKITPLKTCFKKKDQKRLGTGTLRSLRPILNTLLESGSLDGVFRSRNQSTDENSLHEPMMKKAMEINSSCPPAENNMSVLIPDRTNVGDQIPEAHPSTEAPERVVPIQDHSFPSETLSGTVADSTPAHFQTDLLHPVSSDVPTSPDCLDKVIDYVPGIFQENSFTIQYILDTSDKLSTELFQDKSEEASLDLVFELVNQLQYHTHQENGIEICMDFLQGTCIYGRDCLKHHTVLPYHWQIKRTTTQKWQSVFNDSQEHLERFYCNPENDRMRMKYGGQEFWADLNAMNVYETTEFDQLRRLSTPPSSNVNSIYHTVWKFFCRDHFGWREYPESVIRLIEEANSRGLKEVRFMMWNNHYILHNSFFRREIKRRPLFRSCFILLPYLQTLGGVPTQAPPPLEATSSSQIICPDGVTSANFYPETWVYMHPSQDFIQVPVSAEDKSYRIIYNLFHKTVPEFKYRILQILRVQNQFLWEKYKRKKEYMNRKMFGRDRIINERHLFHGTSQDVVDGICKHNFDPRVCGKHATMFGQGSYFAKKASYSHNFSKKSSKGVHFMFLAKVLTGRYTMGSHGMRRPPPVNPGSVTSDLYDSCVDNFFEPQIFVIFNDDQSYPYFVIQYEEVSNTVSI

This test concerns the target PARP7 (Homo sapiens (Human), UniProt Q7Z3E1). The test can be described thus: Enzymatic assay for inhibition of PARP7: TR-FRET displacement of biotinylated Probe A from the TIPARP active site. As to conditions: Table A-1. In kind it is binding. The gist of the method: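 Read-out: 665/615 nm emission ratio (ex 320 nm, 90 μs delay) indexing bound TIPARP–Probe A. Final incubation 30 min, 25° C; compounds in dose response. Curve fit of % inhibition vs concentration; Hill slope floating or fixed at 1 (3-parameter).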
On the technique in general: Time-resolved FRET reads energy transfer from a long-lived donor to a nearby acceptor.
For the compound `N#Cc1ccc(N2CCN(C(=O)COC[C@@H]3CCCN3c3cn[nH]c(=O)c3C(F)(F)F)CC2)nc1` [Example 76, 6-[4-(2-[[(2S)-1-[6-oxo-5-(trifluoromethyl)-1,6-dihydropyridazin-4-yl]pyrrolidin-2-yl]methoxy]acetyl)piperazin-1-yl]pyridine-3-carbonitrile], the pIC50 was > 7.00. In the case of `N#Cc1ccc(N2CCN(C(=O)CCCOC[C@@H]3CCCN3c3cn[nH]c(=O)c3C(F)(F)F)CC2)nc1` [Example 77, 6-[4-(4-[[(2S)-1-[6-oxo-5-(trifluoromethyl)-1,6-dihydropyridazin-4-yl]pyrrolidin-2-yl]methoxy]butanoyl)piperazin-1-yl]pyridine-3-carbonitrile] it was > 7.00; in that of `C[C@H]1C[C@@H](COCCC(=O)N2CCN(c3ccc(C#N)cn3)CC2)N(c2cn[nH]c(=O)c2C(F)(F)F)C1` [Example 78, 6-[4-(3-[[(2S,4S)-4-methyl-1-[6-oxo-5-(trifluoromethyl)-1,6-dihydropyridazin-4-yl]pyrrolidin-2-yl]methoxy]propanoyl)piperazin-1-yl]pyridine-3-carbonitrile], > 7.00; in that of `N#Cc1ccc(N2CCN(C(=O)/C=C/COC[C@@H]3c4ccccc4CN3c3cn[nH]c(=O)c3C(F)(F)F)CC2)nc1` [Example 79 Isomer C, 6-[4-[(2E)-4-[[(1S)-2-[6-oxo-5-(trifluoromethyl)-1,6-dihydropyridazin-4-yl]-2,3-dihydro-1H-isoindol-1-yl]methoxy]but-2-enoyl]piperazin-1-yl]pyridine-3-carbonitrile], > 7.00. As for `N#Cc1ccc(N2CCN(C(=O)/C=C/COC[C@H]3c4ccccc4CN3c3cn[nH]c(=O)c3C(F)(F)F)CC2)nc1` [Example 79 Isomer D, 6-[4-[(2E)-4-[[(1R)-2-[6-oxo-5-(trifluoromethyl)-1,6-dihydropyridazin-4-yl]-2,3-dihydro-1H-isoindol-1-yl]methoxy]but-2-enoyl]piperazin-1-yl]pyridine-3-carbonitrile], the pIC50 is > 7.00. For `O=C(COC[C@@H]1CCCN1c1cn[nH]c(=O)c1C(F)(F)F)NC1CCC(Oc2ccccn2)CC1` (stereo partly drawn) [Example 83, 2-[[(2S)-1-[6-oxo-5-(trifluoromethyl)-1,6-dihydropyridazin-4-yl]pyrrolidin-2-yl]methoxy]-N-[4-(pyridin-2-yloxy)cyclohexyl]acetamide] the value was 6.00 to 7.00. In the case of `O=C(CCOC[C@@H]1CCCN1c1cn[nH]c(=O)c1C(F)(F)F)NC1CCC(Oc2ccccn2)CC1` (stereo partly drawn) [Example 84, 3-[[(2S)-1-[6-oxo-5-(trifluoromethyl)-1,6-dihydropyridazin-4-yl]pyrrolidin-2-yl]methoxy]-N-[4-(pyridin-2-yloxy)cyclohexyl]propanamide], the pIC50 is 6.00 to 7.00. With `N#Cc1ccc(NCCC(=O)Nc2cccc(OC[C@@H]3CCCN3c3cn[nH]c(=O)c3C(F)(F)F)c2)nc1` [Example 85, 3-[(5-cyanopyridin-2-yl)amino]-N-(3-[[(2S)-1-[6-oxo-5-(trifluoromethyl)-1,6-dihydropyridazin-4-yl]pyrrolidin-2-yl]methoxy]phenyl)propanamide], the pIC50 was > 7.00. For `C=CC(=O)Nc1cccc(OC[C@@H]2CCCN2c2cn[nH]c(=O)c2C(F)(F)F)c1` [Example 86, N-(3-[[(2S)-1-[6-oxo-5-(trifluoromethyl)-1,6-dihydropyridazin-4-yl]pyrrolidin-2-yl]methoxy]phenyl)prop-2-enamide] the value was 6.00 to 7.00; for `N#Cc1ccc(NCCC(=O)Nc2cncc(OC[C@@H]3CCCN3c3cn[nH]c(=O)c3C(F)(F)F)c2)nc1` [Example 87, 3-[(5-cyanopyridin-2-yl)amino]-N-(5-[[(2S)-1-[6-oxo-5-(trifluoromethyl)-1,6-dihydropyridazin-4-yl]pyrrolidin-2-yl]methoxy]pyridin-3-yl)propanamide], > 7.00. Take `N#Cc1ccc(N2CCN(C(=O)COCC[C@@H]3CCCN3c3cn[nH]c(=O)c3C(F)(F)F)CC2)nc1` [Example 88, (S)-6-(4-(2-(2-(1-(6-oxo-5-(trifluoromethyl)-1,6-dihydropyridazin-4-yl)pyrrolidin-2-yl)ethoxy)acetyl)piperazin-1-yl)nicotinonitrile]: the pIC50 is > 7.00. Turning to `N#Cc1ccc(N2CCN(C(=O)CNCC[C@@H]3CCCN3c3cn[nH]c(=O)c3C(F)(F)F)CC2)nc1` [Example 89, 6-[4-[2-([2-[(2S)-1-[6-oxo-5-(trifluoromethyl)-1,6-dihydropyridazin-4-yl]pyrrolidin-2-yl]ethyl]amino)acetyl]piperazin-1-yl]pyridine-3-carbonitrile], the pIC50 was > 7.00. As to `N#Cc1ccc(N2CCN(CCCOC[C@@H]3CCCN3c3cn[nH]c(=O)c3C(F)(F)F)CC2)nc1` [Example 90], the pIC50 was > 7.00.

For the compound `CN(CC[C@@H]1CCCN1c1cn[nH]c(=O)c1C(F)(F)F)CC(=O)N1CCN(c2ccc(C#N)cn2)CC1` [Example 91], the pIC50 was 6.00 to 7.00.

As for `N#Cc1ccc(N2CCN(C(=O)C3CCC(OCC4CCN(c5cn[nH]c(=O)c5C(F)(F)F)C4)CC3)CC2)nc1` (centres unmarked) [Example 97, 6-[4-[4-([1-[6-oxo-5-(trifluoromethyl)-1,6-dihydropyridazin-4-yl]pyrrolidin-3-yl]methoxy)cyclohexanecarbonyl]piperazin-1-yl]pyridine-3-carbonitrile], the pIC50 is > 7.00.

Compound `N#Cc1ccc(OC2CCC(NC(=O)CCOC[C@@H]3CCCN3c3cn[nH]c(=O)c3C(F)(F)F)CC2)nc1` (stereo partly drawn) [Example 99, N-(4-[(5-cyanopyridin-2-yl)oxy]cyclohexyl]-3-[[(2S)-1-[6-oxo-5-(trifluoromethyl)-1,6-dihydropyridazin-4-yl]pyrrolidin-2-yl]methoxy]propanamide] had a pIC50 of 6.00 to 7.00. As for `C[C@@H]1CN(c2ccc(C#N)cn2)CCN1C(=O)CCOC[C@@H]1CCCN1c1cn[nH]c(=O)c1C(F)(F)F` [Example 100A, 6-[(3R)-3-methyl-4-(3-[[(2S)-1-[6-oxo-5-(trifluoromethyl)-1,6-dihydropyridazin-4-yl]pyrrolidin-2-yl]methoxy]propanoyl)piperazin-1-yl]pyridine-3-carbonitrile], the pIC50 was > 7.00. For the compound `C[C@H]1CN(c2ccc(C#N)cn2)CCN1C(=O)CCOC[C@@H]1CCCN1c1cn[nH]c(=O)c1C(F)(F)F` [Example 100B, 6-[(3S)-3-methyl-4-(3-[[(2S)-1-[6-oxo-5-(trifluoromethyl)-1,6-dihydropyridazin-4-yl]pyrrolidin-2-yl]methoxy]propanoyl)piperazin-1-yl]pyridine-3-carbonitrile], the pIC50 is > 7.00. In the case of `N#Cc1ccc(N2CC3CCC2CN3C(=O)CCOC[C@@H]2CCCN2c2cn[nH]c(=O)c2C(F)(F)F)nc1` (stereo partly drawn) [Example 101, 6-[5-(3-[[(2S)-1-[6-oxo-5-(trifluoromethyl)-1,6-dihydropyridazin-4-yl]pyrrolidin-2-yl]methoxy]propanoyl)-2,5-diazabicyclo[2.2.2]octan-2-yl]pyridine-3-carbonitrile] it was > 7.00. Consider `N#Cc1ccc(N2C3CCC2CN(C(=O)CCOC[C@@H]2CCCN2c2cn[nH]c(=O)c2C(F)(F)F)C3)nc1` [Example 102, 6-[3-(3-[[(2S)-1-[6-oxo-5-(trifluoromethyl)-1,6-dihydropyridazin-4-yl]pyrrolidin-2-yl]methoxy]propanoyl)-3,8-diazabicyclo[3.2.1]octan-8-yl]pyridine-3-carbonitrile], for which the pIC50 is > 7.00.

In general, pIC50 refers to the IC50 on a negative log10 scale, so that one unit is a factor of ten.
